Here are results for 6 molecules from patent WO2023231996A1, “Crystal forms of hydroxamic acid ester compound and salt thereof, and preparation method” (Shenzhen Chipscreen Biosciences Co Ltd, priority 2022, dated 2023).

Series [1] can be described thus: Solid-state stability by XRPD under stress, accelerated and room-temperature conditions. It is filed as physicochemical. To be noted: high temperature (60°C), high humidity (25°C/92.5%RH), accelerated (40°C/75%RH), room temperature (25°C/60%RH), open.
Series [2] can be described thus: Crystal form by XRPD after DVS. To be noted: humidity 50%-95%-0%-50%. It is filed as physicochemical.
Series [3] is described as follows: Hygroscopicity by dynamic moisture adsorption and desorption (DVS). Type of series: physicochemical. As to conditions: humidity 50%-95%-0%-50%.
Another series deals with Tyk2 (Homo sapiens, UniProt P29597). As to conditions: recorded in PCT/CN2021/134929; cited from earlier work.
The nature of series [4]: Thermodynamic stability by competitive slurry, XRPD (Example 34). Type of series: physicochemical. To be noted: suspended in saturated acetonitrile or MTBE solution, equal amounts of form E and form AH, 6 days.
[5] abbreviates: light not given in the conclusion.

Chain of Tyk2 (P29597 whole entry, species assumed): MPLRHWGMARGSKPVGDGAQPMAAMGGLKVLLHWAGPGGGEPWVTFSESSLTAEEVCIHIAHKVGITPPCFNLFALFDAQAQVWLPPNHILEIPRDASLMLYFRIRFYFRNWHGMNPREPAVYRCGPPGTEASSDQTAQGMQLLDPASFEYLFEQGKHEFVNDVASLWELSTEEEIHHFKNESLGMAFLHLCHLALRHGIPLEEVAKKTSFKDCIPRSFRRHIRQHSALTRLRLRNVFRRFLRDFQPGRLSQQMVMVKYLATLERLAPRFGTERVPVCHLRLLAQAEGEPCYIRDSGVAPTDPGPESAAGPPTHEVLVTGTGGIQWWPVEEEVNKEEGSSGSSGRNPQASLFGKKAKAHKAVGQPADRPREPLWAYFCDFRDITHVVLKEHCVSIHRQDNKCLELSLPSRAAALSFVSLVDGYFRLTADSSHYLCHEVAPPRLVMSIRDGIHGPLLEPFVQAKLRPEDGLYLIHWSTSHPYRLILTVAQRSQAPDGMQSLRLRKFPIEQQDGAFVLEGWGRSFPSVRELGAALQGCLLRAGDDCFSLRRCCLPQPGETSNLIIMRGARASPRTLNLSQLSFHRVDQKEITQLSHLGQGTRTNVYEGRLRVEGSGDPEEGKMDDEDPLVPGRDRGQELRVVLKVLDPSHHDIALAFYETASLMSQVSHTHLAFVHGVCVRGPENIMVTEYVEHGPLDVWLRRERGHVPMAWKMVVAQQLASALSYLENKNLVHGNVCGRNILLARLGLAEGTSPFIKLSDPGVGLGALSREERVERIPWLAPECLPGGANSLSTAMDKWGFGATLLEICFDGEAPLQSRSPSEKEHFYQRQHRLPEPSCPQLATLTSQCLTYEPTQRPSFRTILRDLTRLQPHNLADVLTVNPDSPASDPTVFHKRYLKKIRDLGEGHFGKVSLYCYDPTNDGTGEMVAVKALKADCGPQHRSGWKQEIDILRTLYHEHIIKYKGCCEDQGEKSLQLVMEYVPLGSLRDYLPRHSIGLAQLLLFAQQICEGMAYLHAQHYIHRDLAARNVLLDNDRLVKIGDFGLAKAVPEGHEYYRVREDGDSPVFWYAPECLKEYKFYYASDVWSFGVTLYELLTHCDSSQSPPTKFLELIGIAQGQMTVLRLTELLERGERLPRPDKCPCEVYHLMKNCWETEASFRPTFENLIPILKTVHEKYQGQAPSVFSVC

On to `CCONC(=O)c1cnc(Nc2cc(C)nc(C)n2)cc1Nc1cccc(-c2ncccn2)c1OC.O=C(O)CC(O)(CC(=O)O)C(=O)O` [citric acid eutectic crystal form Type A], for which the stability result in series [1] (setting [5]) is reported as “remains stable”. In addition, the “crystalline transformation before and after the DVS test” value in series [2] is “did not crystallize before and after the DVS test. type transformation”. Besides, in series [3], the hygroscopicity entry is reported as “almost no hygroscopicity”.
For `CCONC(=O)c1cnc(Nc2cc(C)nc(C)n2)cc1Nc1cccc(-c2ncccn2)c1OC` [compound represented by formula (I), 6-(((2,6-二甲基嘧啶-4-基)氨基)-N-乙氧基-4-((2-甲氧基-3-(嘧啶-2-基)苯基)氨基)烟酰胺], at Tyk2, the “Tyk2 selective inhibitory activity” value is “excellent Tyk2 selective inhibitory activity”.
With `CCONC(=O)c1cnc(Nc2cc(C)nc(C)n2)cc1Nc1cccc(-c2ncccn2)c1OC.O=C(O)/C=C\C(=O)O` [maleate crystal form Type A], in series [1] (setting [5]), the stability result is recorded as “remains stable”. Further, the “crystalline transformation before and after the DVS test” value in series [2] is given as “does not undergo crystalline transformation”. In series [3], the hygroscopicity result is on record as “extremely hygroscopic”.
Consider `CCONC(=O)c1cnc(Nc2cc(C)nc(C)n2)cc1Nc1cccc(-c2ncccn2)c1OC.O=C(O)CC(O)C(=O)O` [malic acid eutectic crystal form Type A], for which, in series [1] (setting [5]), the stability result was “remains stable”. The “crystalline transformation before and after the DVS test” value in series [2] was “did not crystallize before and after the DVS test. type transformation”. The hygroscopicity result in series [3] is on record as “slightly hygroscopic”.
Turning to `CCONC(=O)c1cnc(Nc2cc(C)nc(C)n2)cc1Nc1cccc(-c2ncccn2)c1OC` [unsolvated crystalline form AH], in series [1] (light (25°C/4500Lux)), the stability entry is recorded as “remains stable”. The “crystalline transformation before and after the DVS test” value in series [2] was “did not undergo a crystalline transformation”. The hygroscopicity entry in series [3] is “has hygroscopicity”.
Consider `CCONC(=O)c1cnc(Nc2cc(C)nc(C)n2)cc1Nc1cccc(-c2ncccn2)c1OC` [unsolvated crystalline form E], for which the stability entry in series [1] (setting [5]) was “remains stable”. For the same molecule, the “crystalline transformation before and after the DVS test” value in series [2] is on record as “does not undergo a crystalline transformation”. The thermodynamic stability result in series [4] was “higher stability than Form AH”. The hygroscopicity result in series [3] was “no hygroscopicity”.
